“And” between values parts separate entries of the source, which are not always exact repeats. Equal entries are not always repeated. Toxic doses and inconclusive results are not listed. Rule as the data show it: active = T/C of 150% or more; inactive = T/C below 125%. Square brackets hold non-standard residues; d marks the D form. Peptide text beside a SMILES is read from it. * marks the point of attachment. ξ: configuration not given here. Octanoyl = CCCCCCCC(=O)*; ξP = O=C(O)C1CCCN1
System: L1210 leukemia ip in BDF1 mice, survival T/C
Test: NCI In Vivo Anticancer Drug Screen. Data for tumor model L1210 Leukemia (intraperitoneal) in B6D2F1 (BDF1) mice
Conditions: endpoint: mean survival time, higher = longer survival
How it was run: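 In this screen, tumor-bearing mice given compound are compared to those given vehicle, and their survival values are reported as a treated-to-control quotient.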

[1] = dose: 100.0 mg/kg/injection, schedule: Q01DX001 (ip), vehicle: other
[2] = dose: 200.0 mg/kg/injection, schedule: Q01DX001 (ip), vehicle: other
[3] = dose: 100.0 mg/kg/injection, schedule: Q01DX001 (ip), vehicle: saline
[4] = dose: 200.0 mg/kg/injection, schedule: Q01DX001 (ip), vehicle: saline
[5] = dose: 400.0 mg/kg/injection, schedule: Q01DX001 (ip), vehicle: saline
[6] = dose: 100.0 mg/kg/injection, schedule: Q01DX001 (ip), vehicle: Klucel (hydroxypropylcellulose) (HPC)
[7] = dose: 100.0 mg/kg/injection, schedule: Q01DX009 (ip), vehicle: Klucel (hydroxypropylcellulose) (HPC)
[8] = dose: 100.0 mg/kg/injection, schedule: Q04DX003 (ip), vehicle: Klucel (hydroxypropylcellulose) (HPC)
[9] = dose: 200.0 mg/kg/injection, schedule: Q01DX001 (ip), vehicle: Klucel (hydroxypropylcellulose) (HPC)
[10] = dose: 200.0 mg/kg/injection, schedule: Q01DX009 (ip), vehicle: Klucel (hydroxypropylcellulose) (HPC)
[11] = dose: 200.0 mg/kg/injection, schedule: Q04DX003 (ip), vehicle: Klucel (hydroxypropylcellulose) (HPC)
[12] = dose: 400.0 mg/kg/injection, schedule: Q01DX001 (ip), vehicle: Klucel (hydroxypropylcellulose) (HPC)
[13] = dose: 400.0 mg/kg/injection, schedule: Q01DX009 (ip), vehicle: Klucel (hydroxypropylcellulose) (HPC)
[14] = dose: 400.0 mg/kg/injection, schedule: Q04DX003 (ip), vehicle: Klucel (hydroxypropylcellulose) (HPC)
[15] = dose: 100.0 mg/kg/injection, schedule: Q04DX002 (ip), vehicle: saline with Tween-80
[16] = dose: 100.0 mg/kg/injection, schedule: Q04DX003 (ip), vehicle: saline with Tween-80
[17] = dose: 200.0 mg/kg/injection, schedule: Q04DX002 (ip), vehicle: saline with Tween-80
[18] = dose: 200.0 mg/kg/injection, schedule: Q04DX003 (ip), vehicle: saline with Tween-80
[19] = dose: 400.0 mg/kg/injection, schedule: Q04DX002 (ip), vehicle: saline with Tween-80
[20] = dose: 400.0 mg/kg/injection, schedule: Q04DX003 (ip), vehicle: saline with Tween-80
[21] = dose: 100.0 mg/kg/injection, schedule: Q01DX009 (ip), vehicle: saline with Tween-80
[22] = dose: 100.0 mg/kg/injection, schedule: Q04DX003 (ip), vehicle: saline
[23] = dose: 200.0 mg/kg/injection, schedule: Q04DX003 (ip), vehicle: saline

Measured: T/C

COC(=O)C(=C/C=C/c1cc(O)c(O)c(O)c1)C(=O)OC
inactive: dose: 50.0 mg/kg/injection, schedule: Q01DX001 (ip), vehicle: other 104 % of control | [1] 98 % of control | [2] 95 % of control

NC(=O)C(=O)c1ccco1
inactive: [3] 92 % of control | [4] 101 % of control | [5] 108 % of control

O=C(Nc1cccc(C(F)(F)F)c1)Nc1ccc(Cl)cc1Cl
inactive: [6] 96 % of control | [7] 95 % of control and 108 % of control | dose: 100.0 mg/kg/injection, schedule: Q04DX002 (ip), vehicle: Klucel (hydroxypropylcellulose) (HPC) 95 % of control and 100 % of control | [8] 86 % of control | [9] 91 % of control | [10] 94 % of control and 104 % of control | dose: 200.0 mg/kg/injection, schedule: Q04DX002 (ip), vehicle: Klucel (hydroxypropylcellulose) (HPC) 100 % of control and 88 % of control | [11] 94 % of control | [12] 93 % of control | [13] 95 % of control and 97 % of control | dose: 400.0 mg/kg/injection, schedule: Q04DX002 (ip), vehicle: Klucel (hydroxypropylcellulose) (HPC) 98 % of control and 104 % of control | [14] 92 % of control

O=C(Nc1ccc(C2=NC3CCCCC3N2)cc1)c1ccc(C(=O)Nc2ccc(C3=NC4CCCCC4N3)cc2)cc1 (stereo not given)
inactive: dose: 15.0 mg/kg/injection, schedule: Q01DX Z (ip), vehicle: carboxymethylcellulose (CMC) 96 % of control | dose: 30.0 mg/kg/injection, schedule: Q01DX Z (ip), vehicle: carboxymethylcellulose (CMC) 92 % of control | dose: 60.0 mg/kg/injection, schedule: Q01DX Z (ip), vehicle: carboxymethylcellulose (CMC) 96 % of control | dose: 120.0 mg/kg/injection, schedule: Q01DX Z (ip), vehicle: carboxymethylcellulose (CMC) 103 % of control

O=c1[nH]c2nc(SCc3ccccc3)n(Cc3ccccc3)c2c(=O)n1OS(=O)(=O)c1ccccc1
inactive: [15] 101 % of control and 108 % of control | [16] 96 % of control | [17] 94 % of control and 96 % of control | [18] 94 % of control | [19] 94 % of control and 96 % of control | [20] 91 % of control

CS/C([S-])=N/[NH-].CS/C([S-])=N/[NH-].[Pd]
inactive: dose: 3.13 mg/kg/injection, schedule: Q01DX009 (ip), vehicle: saline with Tween-80 98 % of control | dose: 6.25 mg/kg/injection, schedule: Q01DX009 (ip), vehicle: saline with Tween-80 100 % of control | dose: 12.5 mg/kg/injection, schedule: Q01DX009 (ip), vehicle: saline with Tween-80 89 % of control

OC1C=Cc2ccccc21 (stereo not given)
inactive: dose: 100.0 mg/kg/injection, schedule: Q04DX002 (ip), vehicle: other 97 % of control | dose: 200.0 mg/kg/injection, schedule: Q04DX002 (ip), vehicle: other 97 % of control

C=C1CCOC2(C(O)C(C)(O)CO)NC(=O)C1(O)NC2=O (stereo not given)
inactive: dose: 100.0 mg/kg/injection, schedule: Q04DX002 (ip), vehicle: saline 96 % of control | dose: 200.0 mg/kg/injection, schedule: Q04DX002 (ip), vehicle: saline 107 % of control | dose: 400.0 mg/kg/injection, schedule: Q04DX002 (ip), vehicle: saline 104 % of control

CC(=O)NC/C(C)=N/Nc1ccc([N+](=O)[O-])cc1[N+](=O)[O-]
inactive: dose: 25.0 mg/kg/injection, schedule: Q01DX009 (ip), vehicle: saline with Tween-80 91 % of control | dose: 50.0 mg/kg/injection, schedule: Q01DX009 (ip), vehicle: saline with Tween-80 93 % of control | [21] 102 % of control | [16] 88 % of control

O=C(O)C1C2C=Cc3ccccc3C21 (stereo not given)
inactive: [5] 90 % of control

CCc1ccc(C(=O)C2CC2)cc1
inactive: [21] 102 % of control | [16] 93 % of control | dose: 200.0 mg/kg/injection, schedule: Q01DX009 (ip), vehicle: saline with Tween-80 104 % of control | [18] 96 % of control | dose: 400.0 mg/kg/injection, schedule: Q01DX009 (ip), vehicle: saline with Tween-80 110 % of control | [20] 96 % of control

NS(=O)(=O)c1nc[nH]c1[N+](=O)[O-]
inactive: dose: 100.0 mg/kg/injection, schedule: Q01DX009 (ip), vehicle: acetone 92 % of control | dose: 200.0 mg/kg/injection, schedule: Q01DX009 (ip), vehicle: acetone 90 % of control

Nc1ccc(Cc2cc(=O)[nH]c(=O)[nH]2)cc1[N+](=O)[O-]
inactive: dose: 25.0 mg/kg/injection, schedule: Q01DX001 (ip), vehicle: Klucel (hydroxypropylcellulose) (HPC) 98 % of control | dose: 50.0 mg/kg/injection, schedule: Q01DX001 (ip), vehicle: Klucel (hydroxypropylcellulose) (HPC) 107 % of control | [6] 88 % of control | [9] 88 % of control

ClC1(Cl)C2CCCCC21N1CCCCC1 (stereo not given)
inactive: dose: 50.0 mg/kg/injection, schedule: Q01DX009 (ip), vehicle: saline 102 % of control | dose: 50.0 mg/kg/injection, schedule: Q04DX003 (ip), vehicle: saline 115 % of control | [3] 104 % of control | dose: 100.0 mg/kg/injection, schedule: Q01DX009 (ip), vehicle: saline 87 % of control | [22] 94 % of control | [4] 98 % of control | [23] 101 % of control

O=[N+]([O-])c1ccc(OCCC[P+](c2ccccc2)(c2ccccc2)c2ccccc2)c(Cl)c1
inactive: dose: 3.12 mg/kg/injection, schedule: Q01DX009 (ip), vehicle: saline 98 % of control | dose: 6.25 mg/kg/injection, schedule: Q01DX009 (ip), vehicle: saline 95 % of control | dose: 6.25 mg/kg/injection, schedule: Q04DX003 (ip), vehicle: saline 94 % of control | dose: 12.5 mg/kg/injection, schedule: Q01DX009 (ip), vehicle: saline 86 % of control and 87 % of control | dose: 12.5 mg/kg/injection, schedule: Q04DX003 (ip), vehicle: saline 92 % of control | dose: 25.0 mg/kg/injection, schedule: Q04DX003 (ip), vehicle: saline 90 % of control

CCOC(=O)/C(=C\c1ccccn1)C(=O)c1cccnc1
inactive: [8] 102 % of control | [11] 105 % of control | [14] 118 % of control

CNC(=O)c1cnc(SC)nc1N
inactive: dose: 50.0 mg/kg/injection, schedule: Q04DX003 (ip), vehicle: Klucel (hydroxypropylcellulose) (HPC) 103 % of control | [6] 103 % of control | [8] 101 % of control | [9] 100 % of control | [11] 111 % of control

Cc1ccc(S(=O)(=O)Nc2cccc(C(=O)O)c2)cc1
inactive: [1] 98 % of control | [16] 98 % of control | [2] 104 % of control | [18] 104 % of control | dose: 400.0 mg/kg/injection, schedule: Q01DX001 (ip), vehicle: other 102 % of control | [20] 98 % of control

CC1=CC(C(=O)O)P(C)(=O)C1 (stereo not given)
inactive: [15] 92 % of control | [19] 88 % of control

CCCCNC(=O)Nc1ccc(SC)cc1
inactive: [7] 103 % of control | [8] 94 % of control | [10] 95 % of control | [11] 93 % of control | [13] 88 % of control | [14] 94 % of control

Cc1cc(C)c(C(O)C(=O)O)c(C)c1 (stereo not given)
inactive: dose: 75.0 mg/kg/injection, schedule: Q01DX001 (ip), vehicle: saline 108 % of control | dose: 150.0 mg/kg/injection, schedule: Q01DX001 (ip), vehicle: saline 97 % of control | dose: 300.0 mg/kg/injection, schedule: Q01DX001 (ip), vehicle: saline 101 % of control

CN1CCN(P(c2ccccc2)N2CCN(C)CC2)CC1
inactive: [15] 107 % of control | [17] 103 % of control | [19] 95 % of control

CCCCCCCC(=O)N1CCCC1C(=O)NCC(=O)NCC(=O)O (stereo not drawn) (Octanoyl-[ξP]-Gly-Gly-OH)
inactive: [6] 115 % of control | [9] 95 % of control | [12] 95 % of control

NC(=O)C1C2CC3OC(=O)C1C3C2 (stereo not given)
inactive: [22] 93 % of control and 103 % of control | [23] 102 % of control and 100 % of control | dose: 400.0 mg/kg/injection, schedule: Q04DX003 (ip), vehicle: saline 96 % of control and 88 % of control

Reference: PubChem BioAssay AID248 (DTP/NCI, 2004)
